Measurements from US8748624B2, “Picolinamido-propanoic acid derivatives useful as glucagon receptor antagonists” (Janssen Pharmaceutica NV, priority 2011, dated 2014).

Tests used:
human GCGR = human GCGR (Homo sapiens (Human), UniProt P47871); experiment: Cellular functional assay, cAMP readout (glucagon-stimulated cAMP in HEK293 cells expressing human GCGR); format: cell-based; conditions: hGluc-1 HEK cells
Summary of the method: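 HEK293 cells stably transfected with full-length human GCGR were exposed to compound for 30 min before a 5-min challenge with […] (final) glucagon. Readout was TR-FRET (LANCE) cAMP versus standard curve; IC50s fitted by non-linear regression and converted to Ki values.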

[1] = biological target: human glucagon receptor (GCGR) (Homo sapiens (Human), UniProt P47871); experiment: Inhibition of 125I-glucagon binding to membranes from HEK293 cells expressing the human glucagon receptor; conditions: membranes of hGluc-1 HEK cells, 125I-glucagon 0.3 nM
Sequence of human glucagon receptor (GCGR) (P47871 26-477): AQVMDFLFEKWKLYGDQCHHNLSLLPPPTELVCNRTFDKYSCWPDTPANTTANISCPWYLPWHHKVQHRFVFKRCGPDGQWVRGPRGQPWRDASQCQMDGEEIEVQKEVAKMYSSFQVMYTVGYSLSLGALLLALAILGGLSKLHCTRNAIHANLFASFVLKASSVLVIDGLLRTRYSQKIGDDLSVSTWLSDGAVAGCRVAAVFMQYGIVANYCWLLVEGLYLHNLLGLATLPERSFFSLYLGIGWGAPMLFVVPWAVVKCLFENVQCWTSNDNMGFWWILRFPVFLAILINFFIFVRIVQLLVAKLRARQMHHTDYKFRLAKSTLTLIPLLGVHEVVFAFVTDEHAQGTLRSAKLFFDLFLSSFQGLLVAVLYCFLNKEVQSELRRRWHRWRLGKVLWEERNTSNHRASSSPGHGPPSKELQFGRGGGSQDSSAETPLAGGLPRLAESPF
Summary of the method: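 Filtration binding assay on membranes from HEK293 cells stably expressing full-length human GCGR, 6 μg protein/well, with 0.3 nM ¹²⁵I-glucagon plus compound, 2 h at room temperature. Buffer: 50 mM HEPES pH 7.4, 5 mM MgCl2, 1 mM CaCl2, 0.2% BSA. IC50 by non-linear regression, converted to Ki.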

[2] = LANCE TR-FRET, IC50 converted to Ki, average if tested more than once
[3] = 2 hours room temperature, IC50 converted to Ki, average if tested more than once
[4] = meta-substituted comparative compounds (Table 3)

Sequence of human GCGR (P47871 26-477): as above

SMILES	Ki (human GCGR; [2]) [nM]	Ki [1, 3] [nM]	Ki (human GCGR; [4]) [nM]	Ki [1, 4] [nM]
Cc1ccc(-c2ccc(NCc3ccc(Cl)cc3-c3ccc(C(=O)NCCC(=O)O)nc3)cc2Cl)cc1 [Compound 172, 3-(5-(5-chloro-2-(((2-chloro-4′-methyl-[1,1′-biphenyl]-4-yl)amino)methyl)phenyl)picolinamido)propanoic acid]	69.2	26.9	–	–
O=C(O)CCNC(=O)c1ccc(-c2cc(-c3ccccc3)ccc2CNc2ccc(-c3ccc(Cl)cc3Cl)cc2)cn1 [Compound 173, 3-(5-(4-(((2′,4′-dichloro-[1,1′-biphenyl]-4-yl)amino)methyl)-[1,1′-biphenyl]-3-yl)picolinamido)propanoic acid]	67.5	27	–	–
O=C(O)CCNC(=O)c1ccc(-c2cc(C3=CCCCC3)ccc2CNc2ccc(-c3ccc(F)cc3)cc2)cn1 [Compound 174, 3-(5-(4-(((4′-fluoro-[1,1′-biphenyl]-4-yl)amino)methyl)-2′,3′,4′,5′-tetrahydro-[1,1′-biphenyl]-3-yl)picolinamido)propanoic acid]	110	18.3	–	–
O=C(O)CCNC(=O)c1ccc(-c2cc(C3CCCCC3)ccc2CNc2ccc(-c3ccc(F)cc3)cc2)cn1 [Compound 175, 3-(5-(5-cyclohexyl-2-(((4′-fluoro-[1,1′-biphenyl]-4-yl)amino)methyl)phenyl)picolinamido)propanoic acid]	45.8	24.2	–	–
O=C(O)CCNC(=O)c1ccc(-c2cc(C3=CCCCC3)ccc2CNc2ccc(-c3ccc(Cl)cc3Cl)cc2)cn1 [Compound 176, 3-(5-(4-(((2′,4′-dichloro-[1,1′-biphenyl]-4-yl)amino)methyl)-2′,3′,4′,5′-tetrahydro-[1,1′-biphenyl]-3-yl)picolinamido)propanoic acid]	160	40	–	–

Continued, values first:

Ki (human GCGR; [2]) [nM]	Ki [1, 3] [nM]	Ki (human GCGR; [4]) [nM]	Ki [1, 4] [nM]	SMILES
–	–	> 10400	> 2700	O=C(O)CCNC(=O)c1ccc(-c2cc(Cl)cc(CNc3ccc(-c4ccc(F)cc4)cc3)c2)cn1 [Compound M1, 3-(5-(3-chloro-5-(((4′-fluoro-[1,1′-biphenyl]-4-yl)amino)methyl)phenyl)picolinamido)propanoic acid, reference compound]
–	–	> 10400	> 2700	COc1ccc(-c2ccc(NCc3cc(Cl)cc(-c4ccc(C(=O)NCCC(=O)O)nc4)c3)cc2)cc1 [Compound M2, 3-(5-(3-chloro-5-(((4′-methoxy-[1,1′-biphenyl]-4-yl)amino)methyl)phenyl)picolinamido)propanoic acid, reference compound]
–	–	> 10400	> 1350	O=C(O)CCNC(=O)c1ccc(-c2cc(Cl)cc(CNc3ccc(-c4ccc(Cl)cc4)cc3)c2)cn1 [Compound M3, 3-(5-(3-chloro-5-(((4′-chloro-[1,1′-biphenyl]-4-yl)amino)methyl)phenyl)picolinamido)propanoic acid, reference compound]
–	–	> 10400	> 1350	O=C(O)CCNC(=O)c1ccc(-c2cc(Cl)cc(CNc3ccc(-c4ccc(Cl)cc4Cl)cc3)c2)cn1 [Compound M4, 3-(5-(3-chloro-5-(((2′,4′-dichloro-[1,1′-biphenyl]-4-yl)amino)methyl)phenyl)picolinamido)propanoic acid, reference compound]
–	–	> 10400	> 5400	O=C(O)CCNC(=O)c1ccc(-c2cc(Cl)cc(C(=O)Nc3ccc(-c4ccc(Cl)cc4)cc3)c2)cn1 [Compound M5, 3-(5-(3-chloro-5-((4′-chloro-[1,1′-biphenyl]-4-yl)carbamoyl)phenyl)picolinamido)propanoic acid, reference compound]
